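Protocol summary: plate cells (96-well), add compound at 5 concentrations, incubate 48 h, interpolate endpoints linearly. GI50 is the concentration that inhibits growth by half.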 Activity calls are given as the source filed them. No stated cut-off is given here; in the data, active = GI50 up to about 1.1 µM and inactive = higher.
What was measured:
Experiment in all cases: DTP human tumour cell line panel, 48 h
MCF7 = tested on: MCF7
PC-3 = tested on: PC-3
COLO 205 = tested on: COLO 205
HT-29 = tested on: HT-29
HCT-116 = tested on: HCT-116
HCC 2998 = tested on: HCC 2998
SF-295 = tested on: SF-295
T47D = tested on: T47D
NCI/ADR-RES = tested on: NCI/ADR-RES
UACC-62 = tested on: UACC-62
HL-60 = tested on: HL-60
HCT-15 = tested on: HCT-15
MOLT-4 = tested on: MOLT-4
SK-MEL-5 = tested on: SK-MEL-5
DU-145 = tested on: DU-145
Malme-3M = tested on: Malme-3M
NCI-H460 = tested on: NCI-H460
KM12 = tested on: KM12
UACC-257 = tested on: UACC-257
OVCAR-4 = tested on: OVCAR-4

Compound	GI50 (MCF7)	GI50 (PC-3)	GI50 (COLO 205)	GI50 (HT-29)	GI50 (HCT-116)	GI50 (HCC 2998)	GI50 (SF-295)	GI50 (T47D)	GI50 (NCI/ADR-RES)	GI50 (UACC-62)	GI50 (HL-60)	GI50 (HCT-15)	GI50 (MOLT-4)	GI50 (SK-MEL-5)	GI50 (DU-145)	GI50 (Malme-3M)	GI50 (NCI-H460)	GI50 (KM12)	GI50 (UACC-257)	GI50 (OVCAR-4)
COc1ccc(CCN2CCOCC2)cc1	> 100 µM (inactive)	> 100 µM (inactive)	> 100 µM (inactive)	> 100 µM (inactive)	> 100 µM (inactive)	> 100 µM (inactive)	> 100 µM (inactive)	> 100 µM (inactive)	> 100 µM (inactive)	> 100 µM (inactive)	> 100 µM (inactive)	> 100 µM	> 100 µM (inactive)	> 100 µM (inactive)	> 100 µM (inactive)	> 100 µM (inactive)	> 100 µM (inactive)	> 100 µM (inactive)	> 100 µM (inactive)	–
COC(=O)C(CCC1C=CCC1)/N=C\c1ccccc1 (stereo not given)	46.8 µM (inactive)	35.6 µM (inactive)	48.8 µM (inactive)	50 µM (inactive)	31.3 µM (inactive)	86.3 µM (inactive)	57.7 µM (inactive)	47.4 µM (inactive)	26.9 µM (inactive)	74.8 µM (inactive)	36.8 µM (inactive)	43.6 µM	33.8 µM (inactive)	32.1 µM (inactive)	97.9 µM (inactive)	–	44 µM (inactive)	45 µM (inactive)	38.2 µM (inactive)	54.7 µM (inactive)
Cc1c([N+](=O)[O-])oc2ccc3ccccc3c12	10.3 µM (inactive)	86.9 µM (inactive)	6.79 µM (inactive)	14.6 µM (inactive)	4.26 µM (inactive)	25.1 µM (inactive)	58.1 µM (inactive)	61.1 µM (inactive)	33.4 µM (inactive)	56.1 µM (inactive)	3.18 µM (inactive)	19 µM	2.58 µM (inactive)	5.4 µM (inactive)	7.74 µM (inactive)	–	3.74 µM (inactive)	29.9 µM (inactive)	78 µM (inactive)	47.5 µM (inactive)
COc1cc(COC(=O)N[C@H](C(=O)O)C(C)(C)C)c([N+](=O)[O-])cc1OC	> 100 µM (inactive)	> 100 µM (inactive)	> 100 µM (inactive)	> 100 µM (inactive)	> 100 µM (inactive)	> 100 µM (inactive)	> 100 µM (inactive)	> 100 µM (inactive)	> 100 µM (inactive)	> 100 µM (inactive)	> 10 µM (inactive)	> 100 µM	> 100 µM (inactive)	> 100 µM (inactive)	> 100 µM (inactive)	> 100 µM (inactive)	> 100 µM (inactive)	> 100 µM (inactive)	> 100 µM (inactive)	–
CC(C)CCCC(C)[C@H]1CCC2[C@@H]3CCC4Cc5nc6c(nc5C[C@]4(C)C3CC[C@@]21C)CC1CC[C@@H]2C(C[C@@H](O)[C@@]3(C)C2C[C@@H]2OC4(CCC(C)CO4)C(C)[C@@H]23)[C@@]1(C)C6 (stereo not given in full)	> 100 µM (inactive)	> 100 µM (inactive)	> 100 µM (inactive)	> 100 µM (inactive)	> 100 µM (inactive)	> 100 µM (inactive)	> 100 µM (inactive)	> 100 µM (inactive)	> 100 µM (inactive)	> 100 µM (inactive)	> 100 µM (inactive)	> 100 µM	> 100 µM (inactive)	> 100 µM (inactive)	> 100 µM (inactive)	–	> 100 µM (inactive)	> 100 µM (inactive)	> 100 µM (inactive)	> 100 µM (inactive)
CCN(CC)CCCNc1nnc(C)c2[nH]c3ccccc3c12	3.61 µM (inactive)	12.1 µM (inactive)	2.7 µM (inactive)	6.49 µM (inactive)	5.36 µM (inactive)	9.95 µM (inactive)	20.8 µM (inactive)	12.7 µM (inactive)	> 100 µM (inactive)	13.7 µM (inactive)	3.28 µM (inactive)	> 100 µM	4.1 µM (inactive)	14.6 µM (inactive)	18.9 µM (inactive)	15.1 µM (inactive)	8.13 µM (inactive)	11.4 µM (inactive)	15.1 µM (inactive)	–
COc1cc2c(c(OC)c1OC)C(=O)[C@@H](O)[C@H]2NC(N)=O	> 100 µM (inactive)	> 100 µM (inactive)	> 100 µM (inactive)	> 100 µM (inactive)	> 100 µM (inactive)	> 100 µM (inactive)	> 100 µM (inactive)	31.6 µM (inactive)	> 100 µM (inactive)	83.4 µM (inactive)	> 100 µM (inactive)	> 100 µM	> 100 µM (inactive)	> 100 µM (inactive)	> 100 µM (inactive)	> 100 µM (inactive)	> 100 µM (inactive)	> 100 µM (inactive)	> 100 µM (inactive)	–
CCc1cc(-c2nsc(=O)o2)c(S(=O)(=O)CC)s1	26.7 µM (inactive)	33.4 µM (inactive)	> 100 µM (inactive)	84.9 µM (inactive)	43.3 µM (inactive)	37.2 µM (inactive)	> 100 µM (inactive)	76.7 µM (inactive)	> 100 µM (inactive)	–	0.951 µM (active)	52.7 µM	> 10 µM (inactive)	> 100 µM (inactive)	> 100 µM (inactive)	–	> 100 µM (inactive)	38.4 µM (inactive)	–	> 100 µM (inactive)
CC1OC(O[C@H]2CC[C@]3(C)[C@H]4CC=C5[C@@H]6[C@@H](C)[C@H](C)CC[C@]6(C(=O)O)CC[C@@]5(C(=O)O)[C@]4(C)CC[C@H]3C2(C)C)C(O)C(O)C1O (stereo not given in full)	> 75 µM (inactive)	> 75 µM (inactive)	> 75 µM (inactive)	–	> 75 µM (inactive)	> 75 µM (inactive)	> 75 µM (inactive)	> 75 µM (inactive)	> 75 µM (inactive)	> 75 µM (inactive)	24.8 µM (inactive)	> 75 µM	> 75 µM (inactive)	> 75 µM (inactive)	> 75 µM (inactive)	–	50.1 µM (inactive)	> 75 µM (inactive)	> 75 µM (inactive)	> 75 µM (inactive)
O=C(O)C1C2CCC(C2)C1c1ccccc1 (stereo not given)	> 100 µM (inactive)	> 100 µM (inactive)	> 100 µM (inactive)	> 100 µM (inactive)	> 100 µM (inactive)	> 100 µM (inactive)	> 100 µM (inactive)	> 100 µM (inactive)	> 100 µM (inactive)	> 100 µM (inactive)	> 100 µM (inactive)	> 100 µM	> 100 µM (inactive)	> 100 µM (inactive)	> 100 µM (inactive)	> 100 µM (inactive)	> 100 µM (inactive)	> 100 µM (inactive)	> 100 µM (inactive)	–
Cc1cccc(-c2cc(O)c3c(C)ccnc3n2)c1	0.319 µM (active)	0.371 µM (active)	0.208 µM (active)	0.339 µM (active)	0.355 µM (active)	1.03 µM (active)	0.346 µM (active)	0.826 µM (active)	0.255 µM (active)	0.461 µM (active)	0.166 µM (active)	0.261 µM	0.71 µM (active)	0.269 µM (active)	1.05 µM (active)	–	0.363 µM (active)	0.209 µM (active)	–	8.41 µM (inactive)

Reference: ChEMBL document CHEMBL1201862, “PubChem BioAssay data set” (2004)
